Where only a bound is given, the exact number is not on record here.

As a reminder, the IC50 is the concentration that gives 50% inhibition.

The test deals with T1, CYP11A1 (Homo sapiens, UniProt P05108).
T1 construct: human H295R adrenocortical carcinoma cell line was used as source of enzyme; endogenous in cells; host or cells: H295R human adrenocortical carcinoma cells
T1 sequence (P05108 40-521): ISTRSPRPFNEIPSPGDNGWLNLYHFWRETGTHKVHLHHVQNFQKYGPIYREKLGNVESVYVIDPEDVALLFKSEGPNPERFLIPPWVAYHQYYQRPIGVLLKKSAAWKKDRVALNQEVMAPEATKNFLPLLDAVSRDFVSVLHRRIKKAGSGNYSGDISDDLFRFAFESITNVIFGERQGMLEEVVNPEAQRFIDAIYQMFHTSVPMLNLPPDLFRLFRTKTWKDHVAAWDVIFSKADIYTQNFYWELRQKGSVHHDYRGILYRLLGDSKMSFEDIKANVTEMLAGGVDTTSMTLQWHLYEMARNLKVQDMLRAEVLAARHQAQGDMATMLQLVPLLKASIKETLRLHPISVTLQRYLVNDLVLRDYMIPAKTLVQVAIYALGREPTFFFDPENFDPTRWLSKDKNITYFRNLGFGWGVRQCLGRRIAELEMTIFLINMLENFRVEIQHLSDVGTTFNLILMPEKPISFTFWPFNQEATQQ
The experiment in a line: CYP11A1 inhibition: modified isocaproic acid release assay (IARA) in H295R cells. The conditions noted are these: human H295R adrenocortical carcinoma cells treated three days, 3 nM [24,25-3H]-labelled cholesterol, 1% DMSO, 10 concentrations in duplicates; read-out: IC50 of the test compounds on CYP11A1 inhibition. Format: cell-based. The method in brief: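 Cholesterol side-chain cleavage followed as tritiated isocaproic acid in charcoal-extracted medium, counted by scintillation. Substrate was 3 nM [24,25-3H]-cholesterol on human H295R cells exposed for three days to ten compound concentrations (duplicates, 1% DMSO); IC50 derived.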
For the compound `CC(=O)N1CCC(COc2coc(CN3Cc4ccccc4C3)cc2=O)CC1` [Compound 252, 5-((1-Acetylpiperidin-4-yl)methoxy)-2-(isoindolin-2-ylmethyl)-4H-pyran-4-one], the IC50 is 150 to 300 nM.

For the compound `O=c1cc(CN2Cc3ccccc3C2)occ1OCc1ccc(S(=O)(=O)N2CCCCC2)cc1` [Compound 7, 2-(Isoindolin-2-ylmethyl)-5-((4-(piperidin-1-ylsulfonyl)benzyl)oxy)-4H-pyran-4-one], the IC50 lay within 150 to 300 nM.

Take `COCc1cccnc1N1CCN(C(=O)COc2coc(CN3Cc4ccccc4C3)cc2=O)CC1` [Compound 159, 2-(Isoindolin-2-ylmethyl)-5-(2-(4-(3-(methoxymethyl)pyridin-2-yl)piperazin-1-yl)-2-oxoethoxy)-4H-pyran-4-one]: the IC50 lay in the range of 301 to 2000 nM.

In the case of `CCC(=O)N1CCC(COc2coc(CN3Cc4ccccc4C3)cc2=O)CC1` [Compound 261, 2-(Isoindolin-2-ylmethyl)-5-((1-propionylpiperidin-4-yl)methoxy)-4H-pyran-4-one], the concentration for half-maximal inhibition (IC50) was less than 150 nM.

Turning to `CN(C)C(=O)c1ccc(CCOc2coc(CN3Cc4ccccc4C3)cc2=O)cc1` [Compound 112, 4-(2-((6-(Isoindolin-2-ylmethyl)-4-oxo-4H-pyran-3-yl)oxy)ethyl)-N,N-dimethylbenzamide], the IC50 fell in the range of 301 to 2000 nM.

As to `O=C(c1ccc(COc2coc(CN3Cc4ccccc4C3)cc2=O)cc1)N1CC(F)(F)C1` [Compound 158, 5-((4-(3,3-Difluoroazetidine-1-carbonyl)benzyl)oxy)-2-(isoindolin-2-ylmethyl)-4H-pyran-4-one], the IC50 was 150 to 300 nM.

Regarding `CC(c1cc(=O)c(OCc2ccc(S(C)(=N)=O)cc2)co1)N1Cc2ccccc2C1` (stereo not shown) [Compound 91, 2-(1-(Isoindolin-2-yl)ethyl)-5-((4-(S-methylsulfonimidoyl)benzyl)oxy)-4H-pyran-4-one], the IC50 was less than 150 nM.

As to `CS(=O)(=O)c1ccc(COc2coc(CN3CCc4ccccc4C3)cc2=O)c(Cl)c1` [Compound 18, 5-((2-Chloro-4-(methylsulfonyl)benzyl)oxy)-2-((3,4-dihydroisoquinolin-2(1H)-yl)methyl)-4H-pyran-4-one], the IC50 was 301 to 2000 nM.

With `O=c1cc(CN2Cc3ccccc3C2)occ1OCC1CCN(S(=O)(=O)CC(F)(F)F)CC1` [Compound 253], the IC50 lay within 301 to 2000 nM.

In the case of `CN(C)S(=O)(=O)N1CCC(COc2coc(CN3Cc4ccc(F)cc4C3)cc2=O)CC1` [Compound 230, 4-(((6-((5-Fluoroisoindolin-2-yl)methyl)-4-oxo-4H-pyran-3-yl)oxy)methyl)-N,N-dimethylpiperidine-1-sulfonamide], the IC50 is less than 150 nM.

For the compound `CCCCNC(=O)c1ccc(COc2coc(CN3Cc4ccccc4C3)cc2=O)cc1` [Compound 169, N-Butyl-4-(((6-(isoindolin-2-ylmethyl)-4-oxo-4H-pyran-3-yl)oxy)methyl)-benzamide], the IC50 lay within 150 to 300 nM.

For `CS(=O)(=O)c1ccc(COc2coc(CN3Cc4cc(F)c(F)cc4C3)cc2=O)cc1` [Compound 26, 2-((5,6-Difluoroisoindolin-2-yl)methyl)-5-((4-(methylsulfonyl)benzyl)oxy)-4H-pyran-4-one], the IC50 was in the range of 150 to 300 nM.

Consider `O=c1cc(CN2Cc3ccccc3C2)occ1OCC1CCS(=O)(=O)CC1` [Compound 35, 5-((1,1-Dioxidotetrahydro-2H-thiopyran-4-yl)methoxy)-2-(isoindolin-2-yl-methyl)-4H-pyran-4-one], for which the IC50 was 301 to 2000 nM.

Consider `Cn1nccc1S(=O)(=O)N1CCC(COc2coc(CN3Cc4ccccc4C3)cc2=O)CC1` [Compound 255, 2-(Isoindolin-2-ylmethyl)-5-((1-((1-methyl-1H-pyrazol-5-yl)sulfonyl)piperidin-4-yl)methoxy)-4H-pyran-4-one], for which the 50% inhibitory concentration (IC50) is less than 150 nM.

For the compound `CS(=N)(=O)c1ccc(COc2coc(CN3Cc4ccccc4C3)cc2=O)cc1` (stereo not shown) [Compound 86, 2-(Isoindolin-2-ylmethyl)-5-((4-(S-methylsulfonimidoyl)benzyl)oxy)-4H-pyran-4-one], the IC50 was 150 to 300 nM.

As for `CC1(C)c2ccccc2CN1Cc1cc(=O)c(OCC2CCN(S(C)(=O)=O)CC2)co1` [Compound 212, 2-((1,1-Dimethylisoindolin-2-yl)methyl)-5-((1-(methylsulfonyl)piperidin-4-yl)-methoxy)-4H-pyran-4-one], the IC50 was in the range of 301 to 2000 nM.

Turning to `NC(=O)c1ccc(COc2coc(CN3Cc4ccccc4C3)cc2=O)cc1` [Compound 57, 4-(((6-(Isoindolin-2-ylmethyl)-4-oxo-4H-pyran-3-yl)oxy)methyl)benzamide], the half-inhibitory concentration (IC50) was 301 to 2000 nM.

In the case of `CC(C)(CO)CNC(=O)c1ccc(COc2coc(CN3Cc4ccccc4C3)cc2=O)cc1` [Compound 151, N-(3-Hydroxy-2,2-dimethylpropyl)-4-(((6-(isoindolin-2-ylmethyl)-4-oxo-4H-pyran-3-yl)oxy)methyl)benzamide], the IC50 lay in the range of 301 to 2000 nM.

For the compound `N#Cc1ccc(COc2coc(CN3CCc4ccccc4C3)cc2=O)cc1` [Compound 41, 4-(((6-((3,4-Dihydroisoquinolin-2(1H)-yl)methyl)-4-oxo-4H-pyran-3-yl)oxy)-methyl)benzonitrile], the IC50 lay within 301 to 2000 nM.

Take `CC(C)(O)c1ccc(COc2coc(CN3Cc4cccc(F)c4C3)cc2=O)cc1` [Compound 33, 2-((4-Fluoroisoindolin-2-yl)methyl)-5-((4-(2-hydroxypropan-2-yl)benzyl)oxy)-4H-pyran-4-one]: the IC50 is 301 to 2000 nM.

Regarding `O=c1cc(CN2Cc3ccccc3C2)occ1OCc1ccc(Br)cc1` [Compound 58, 5-((4-Bromobenzyl)oxy)-2-(isoindolin-2-ylmethyl)-4H-pyran-4-one], the IC50 is 301 to 2000 nM.

Take `CS(=O)(=O)c1ccc(COc2coc(CN3Cc4ccccc4C3)cc2=O)cc1F` [Compound 17, 5-((3-Fluoro-4-(methylsulfonyl)benzyl)oxy)-2-(isoindolin-2-ylmethyl)-4H-pyran-4-one]: the IC50 fell in the range of 301 to 2000 nM.

On to `C#CCNC(=O)c1ccc(COc2coc(CN3Cc4ccccc4C3)cc2=O)cc1` [Compound 141, 4-(((6-(Isoindolin-2-ylmethyl)-4-oxo-4H-pyran-3-yl)oxy)methyl)-N-(prop-2-yn-1-yl)benzamide], for which the IC50 lay in the range of 301 to 2000 nM.

As for `O=C(N1CCCC1)N1CCC(COc2coc(CN3Cc4ccccc4C3)cc2=O)CC1` [Compound 215, 2-(Isoindolin-2-ylmethyl)-5-((1-(pyrrolidine-1-carbonyl)piperidin-4-yl)methoxy)-4H-pyran-4-one], the IC50 is less than 150 nM.

In the case of `CS(=O)(=O)c1ccc(COc2coc(CN3Cc4ccccc4C3)cc2=O)cc1` [Compound 1, 2-(Isoindolin-2-ylmethyl)-5-((4-(methylsulfonyl)benzyl)oxy)-4H-pyran-4-one], the concentration for half-maximal inhibition (IC50) was in the range of 150 to 300 nM.

For `O=C(c1ccc(COc2coc(CN3CCc4ccccc4C3)cc2=O)cc1)N1CCCC(O)C1` (stereo not shown) [Compound 149, 2-((3,4-Dihydroisoquinolin-2(1H)-yl)methyl)-5-((4-(3-hydroxypiperidine-1-carbonyl)benzyl)oxy)-4H-pyran-4-one], the IC50 was 301 to 2000 nM.

As to `CS(=O)(=O)N1CCC(COc2coc(CN3Cc4ccccc4C3)cc2=O)=C(F)C1` [Compound 104, 5-((5-Fluoro-1-(methylsulfonyl)-1,2,3,6-tetrahydropyridin-4-yl)methoxy)-2-(isoindolin-2-ylmethyl)-4H-pyran-4-one], the IC50 was less than 150 nM.

As to `CCC(=O)N1CCC(COc2coc(CN3Cc4ccc(F)cc4C3)cc2=O)CC1` [Compound 224, 2-((5-Fluoroisoindolin-2-yl)methyl)-5-((1-propionylpiperidin-4-yl)methoxy)-4H-pyran-4-one], the IC50 is less than 150 nM.

For `CS(=O)(=O)c1ccc(COc2coc(CN3Cc4ccccc4C3)cc2=O)c(Cl)c1` [Compound 16, 5-((2-Chloro-4-(methylsulfonyl)benzyl)oxy)-2-(isoindolin-2-ylmethyl)-4H-pyran-4-one], the IC50 is 301 to 2000 nM.

With `CC1c2ccccc2CCN1Cc1cc(=O)c(OCc2ccc(C(=O)N3CCCC3)cc2)co1` (stereo not shown) [Compound 125, 2-((1-Methyl-3,4-dihydroisoquinolin-2(1H)-yl)methyl)-5-((4-(pyrrolidine-1-carbonyl)benzyl)oxy)-4H-pyran-4-one], the IC50 lay within 301 to 2000 nM.

For the compound `CNC(=O)C1CCC(COc2coc(CN3Cc4ccccc4C3)cc2=O)CC1` (stereo not shown) [Compound 227, 4-(((6-(Isoindolin-2-ylmethyl)-4-oxo-4H-pyran-3-yl)oxy)methyl)-N-methylcyclo-hexanecarboxamide], the IC50 is 150 to 300 nM.

Consider `CS(=O)(=O)N[C@@H]1CC[C@H](COc2coc(CN3Cc4ccccc4C3)cc2=O)C1` (relative stereo) [Compound 276, Cis-N-(3-(((6-(Isoindolin-2-ylmethyl)-4-oxo-4H-pyran-3-yl)oxy)methyl)-cyclo-pentyl)-methanesulfonamide], for which the IC50 lay within 150 to 300 nM.

On to `CCS(=O)(=O)c1ccc(COc2coc(CN3Cc4ccccc4C3)cc2=O)cc1` [Compound 24, 5-((4-(Ethylsulfonyl)benzyl)oxy)-2-(isoindolin-2-ylmethyl)-4H-pyran-4-one], for which the half-maximal inhibitory concentration (IC50) is 150 to 300 nM.

Consider `N#Cc1ccc(COc2coc(CN3Cc4ccccc4C3)cc2=O)cc1` [Compound 45, 4-(((6-(Isoindolin-2-ylmethyl)-4-oxo-4H-pyran-3-yl)oxy)methyl)benzonitrile], for which the IC50 was in the range of 301 to 2000 nM.

The record behind these values is patent US11098032B2, “Pyran dervatives as CYP11A1 (cytochrome P450 monooxygenase 11A1) inhibitors” (ORION CORPORATION, priority 2016, dated 2021).
